The values below come from paper PMC6445164, “Primary mono- and bis-sulfonamides obtained via regiospecific sulfochlorination of N-arylpyrazoles: inhibition profile against a panel of human carbonic anhydrases” (Journal of Enzyme Inhibition and Medicinal Chemistry, 2017).

Data set [1] has as its target hCA IV (Homo sapiens, UniProt P22748). Nature of the data set: stopped-flow CA catalysed CO2 hydration assay, hCA IV.
Experimental: (§1) An applied photophysics stopped-flow instrument has been used for assaying the CA catalysed CO2 hydration activity[21]. […] The CO2 concentrations ranged from 1.7 to 17 mM for the determination of the kinetic parameters and inhibition constants. […] The uncatalysed rates were determined in the same manner and subtracted from the total observed rates. Stock solutions of inhibitor (0.1 mM) were prepared in distilled-deionized water and dilutions up to 0.005 nM were done thereafter with the assay buffer. Inhibitor and enzyme solutions were preincubated together for 15 min at room temperature prior to assay, in order to allow for the formation of the E–I complex. The inhibition constants were obtained by non-linear least-squares methods using PRISM 3 and the Cheng–Prusoff equation, as reported earlier, and represent the mean from at least three different determinations. All CA isoforms were recombinant ones obtained in-house[22–25].
The target of data set [2] is hCA VII (Homo sapiens, UniProt P43166). Put plainly: stopped-flow CA catalysed CO2 hydration assay, hCA VII.
Experimental: as §1
For data set [3], the target named is hCA I (Homo sapiens, UniProt P00915). Nature of the data set: stopped-flow CA catalysed CO2 hydration assay, hCA I.
Experimental: as §1
The target of data set [4] is hCA II (Homo sapiens, UniProt P00918). Nature of the data set: stopped-flow CA catalysed CO2 hydration assay, hCA II.
Experimental: as §1
[5] abbreviates: read-out: hCA Ki (μM) hCA IV, recombinant enzyme, stopped-flow CO2 hydration, 15 min preincubation, pH 8.3.
[6] abbreviates: read-out: hCA Ki (μM) hCA VII, recombinant enzyme, stopped-flow CO2 hydration, 15 min preincubation, pH 8.3.
The mark [7] stands for this setting: read-out: hCA Ki (μM) hCA I, recombinant enzyme, stopped-flow CO2 hydration, 15 min preincubation, pH 8.3.
Setting [8] is: read-out: hCA Ki (μM) hCA II, recombinant enzyme, stopped-flow CO2 hydration, 15 min preincubation, pH 8.3.

Where two headings read alike, the source gives them in different places.

hCA I, sequence (P00915 whole entry): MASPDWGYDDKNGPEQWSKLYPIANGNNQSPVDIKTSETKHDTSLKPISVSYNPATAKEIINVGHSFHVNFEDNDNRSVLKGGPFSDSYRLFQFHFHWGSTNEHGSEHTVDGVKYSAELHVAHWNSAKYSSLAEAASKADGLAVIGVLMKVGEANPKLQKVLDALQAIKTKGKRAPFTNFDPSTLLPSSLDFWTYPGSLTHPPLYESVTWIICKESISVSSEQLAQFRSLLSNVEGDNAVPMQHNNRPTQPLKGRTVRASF
hCA VII, sequence (P43166 whole entry): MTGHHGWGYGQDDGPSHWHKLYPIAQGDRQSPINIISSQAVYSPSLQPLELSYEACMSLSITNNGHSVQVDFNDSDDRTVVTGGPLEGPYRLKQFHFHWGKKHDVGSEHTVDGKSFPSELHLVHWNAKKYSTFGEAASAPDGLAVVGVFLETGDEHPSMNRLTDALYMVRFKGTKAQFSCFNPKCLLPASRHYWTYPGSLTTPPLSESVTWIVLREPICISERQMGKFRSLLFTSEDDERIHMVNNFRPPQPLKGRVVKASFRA
hCA IV, sequence (P22748 19-312): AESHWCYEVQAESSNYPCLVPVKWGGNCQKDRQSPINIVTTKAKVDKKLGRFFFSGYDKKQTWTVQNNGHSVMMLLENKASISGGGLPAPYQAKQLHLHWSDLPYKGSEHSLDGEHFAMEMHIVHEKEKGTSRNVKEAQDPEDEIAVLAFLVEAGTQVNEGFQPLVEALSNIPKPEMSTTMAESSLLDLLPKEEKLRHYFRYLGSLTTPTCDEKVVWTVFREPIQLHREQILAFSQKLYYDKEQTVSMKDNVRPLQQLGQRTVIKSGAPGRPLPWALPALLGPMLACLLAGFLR

Consider `COc1ccc(-n2cccn2)cc1S(N)(=O)=O` [Compound 7h], for which the “hCA IV inhibition, in words” value in data set [1] was “loss of hCA IV inhibition activity”. The Ki in data set [1] (setting [5]), in data set [2] (setting [6]), in data set [3] (setting [7]) and in data set [4] (setting [8]) was > 10 µM throughout.
Consider `Cc1cccc(-n2nc(C)c(S(N)(=O)=O)c2C)c1` [Compound 8d, 3,5-Dimethyl-1-(3-methylphenyl)-^1H-pyrazole-4-sulfonamide], for which the melting point – broadly, the temperature, or range, at which the solid turns liquid – was in the range of 174 to 176 °C. The Ki (commonly the dissociation constant of the complex between target and ligand, obtained from inhibition or displacement) in data set [1] is > 10 µM. In data set [2], this molecule registered a Ki of 0.94 µM. In addition, the inhibition constant (Ki) in data set [3] stood at 0.27 µM. This molecule also yielded a Ki in data set [4] of 0.24 µM.
The molecule `Cc1cc(-n2cc(S(N)(=O)=O)cn2)ccc1S(N)(=O)=O` [Compound 9g, 1-(3-Methyl-4-sulfamoylphenyl)-^1H-pyrazole-4-sulfonamide] returned a melting point of 205 to 207 °C. Besides, the Ki in data set [1] (setting [5]) amounted to 5.8 µM. In addition, the Ki in data set [2] (setting [6]) is 0.005 µM. Further, in data set [3] (setting [7]), the Ki is 0.1 µM. Further, in data set [4] (setting [8]), the Ki was 0.049 µM.
In the case of `COc1cc(-n2cccn2)ccc1S(N)(=O)=O` [Compound 7j, 2-Methoxy-4-(^1H-pyrazol-1-yl)benzenesulfonamide], the melting point is 221 to 223 °C. Besides, in data set [1], the Ki is > 10 µM. Moreover, in data set [2], the inhibition constant Ki stood at 0.387 µM. For the same molecule, in data set [2] (within the panel hCA I, II, IV, VII), the “isoform selectivity for hCA VII, in words” value was “quite notable”. Also, the Ki in data set [3] is > 10 µM. Moreover, in data set [4], the Ki was > 10 µM.
In turn, `Cc1nn(-c2ccccc2)c(C)c1S(N)(=O)=O` [Compound 8b, 3,5-Dimethyl-1-phenyl-^1H-pyrazole-4-sulfonamide] registered a melting point of 161 to 163 °C. Moreover, the Ki in data set [1] was > 10 µM. In addition, affinity in data set [2] was put at a Ki of 0.53 µM. Besides, in data set [3], the Ki turned out to be 0.54 µM. The affinity in data set [4], expressed as Ki, was 0.28 µM.
Molecule `Cc1cc(-n2nc(C)c(S(N)(=O)=O)c2C)ccc1S(N)(=O)=O` [Compound 9f, 3,5-Dimethyl-1-(3-methyl-4-sulfamoylphenyl)-^1H-pyrazole-4-sulfonamide] showed a melting point of 143 to 146 °C. In addition, the Ki in data set [1] was 0.022 µM. For the same molecule, the Ki in data set [2] was found to be 0.019 µM. Also, the affinity in data set [3] corresponds to a Ki of 0.47 µM. The molecule further registered a Ki in data set [4] of 0.002 µM.
On to `NS(=O)(=O)c1cnn(-c2cccc(Cl)c2)c1` [Compound 8h, (3-Chlorophenyl)-^1H-pyrazole-4-sulfonamide], for which the Ki in data set [1] (setting [5]) was determined as 3.74 µM; in data set [2] (setting [6]), 0.24 µM; in data set [3] (setting [7]), 0.54 µM; in data set [4] (setting [8]) it was 0.14 µM. Further, the “hCA VII inhibition, in words” value in data set [2] is “good hCA I, II and VII inhibition activity”. In data set [3], the “hCA I inhibition, in words” value is “good hCA I, II and VII inhibition activity”. In addition, the “hCA II inhibition, in words” value in data set [4] was “good hCA I, II and VII inhibition activity”.
`Cc1nn(-c2ccccc2Cl)c(C)c1S(N)(=O)=O` [Compound 8i, 1-(2-Chlorophenyl)-3,5-dimethyl-^1H-pyrazole-4-sulfonamide] gave a melting point of 204 to 206 °C. Further, the inhibition constant Ki in data set [1] is 7.19 µM. Also, the Ki in data set [2] is > 10 µM. The molecule further registered a Ki in data set [3] of 0.62 µM. The molecule also displayed a Ki in data set [4] of 2.64 µM.
Regarding `Cc1cc(C)n(-c2cc(S(N)(=O)=O)ccc2C)n1` [Compound 7e, 3-(3,5-Dimethyl-^1H-pyrazol-1-yl)-4-methylbenzenesulfonamide], the melting point lay within 112 to 114 °C. In addition, the Ki in data set [1] was > 10 µM. For the same molecule, the affinity in data set [2], expressed as Ki, was 0.194 µM. In data set [3], this molecule returned a Ki of 4.21 µM. For the same molecule, affinity in data set [4] was put at a Ki of 0.381 µM.
In turn, `Cc1cc(C)n(-c2ccc(S(N)(=O)=O)c(C)c2)n1` [Compound 7c, 4-(3,5-Dimethyl-^1H-pyrazol-1-yl)-2-methylbenzenesulfonamide] returned a melting point of 194 to 196 °C. Moreover, in data set [1], affinity was put at a Ki of 0.033 µM. This molecule also came in with an inhibition constant (Ki) in data set [2] of 0.04 µM. The molecule also gave a Ki in data set [3] of 0.26 µM. In data set [4], this molecule displayed a Ki of 0.004 µM.
Turning to `NS(=O)(=O)c1cnn(-c2ccc(S(N)(=O)=O)c(Cl)c2)c1` [Compound 9p, 1-(3-Chloro-4-sulfamoylphenyl)-^1H-pyrazole-4-sulfonamide], the melting point fell in the range of 195 to 197 °C. The same molecule came in with a Ki in data set [1] of 0.075 µM. Moreover, the affinity in data set [2], expressed as Ki, was 0.48 µM. The Ki in data set [3] came out at 3.08 µM. In data set [4], this molecule returned a Ki of 0.008 µM.
The matching figures for `Cc1ccccc1-n1nc(C)c(S(N)(=O)=O)c1C` [Compound 8e, 3,5-Dimethyl-1-(2-methylphenyl)-^1H-pyrazole-4-sulfonamide]: 161 to 163 °C, > 10 µM, > 10 µM, 0.6 µM and 0.091 µM.
As for `Cc1nn(-c2ccc(Cl)c(S(N)(=O)=O)c2)c(C)c1S(N)(=O)=O` [Compound 9m, 1-(4-Chloro-3-sulfamoylphenyl)-3,5-dimethyl-^1H-pyrazole-4-sulfonamide], the melting point is 241 to 243 °C. In data set [1], this molecule gave a Ki of 0.077 µM. The molecule also displayed a Ki in data set [2] of 0.65 µM. Also, in data set [3], affinity was put at a Ki of 0.89 µM. In data set [4], this molecule displayed a Ki of 0.04 µM.
Regarding `COc1ccc(-n2nc(C)c(S(N)(=O)=O)c2C)cc1S(N)(=O)=O` [Compound 9j, 1-(4-Methoxy-3-sulfamoylphenyl)-3,5-dimethyl-^1H-pyrazole-4-sulfonamide], the melting point was 254 to 257 °C. In addition, the Ki in data set [1] was > 10 µM. Further, the Ki in data set [2] came to 0.33 µM. Moreover, the Ki in data set [3] is 0.95 µM. This molecule yielded a Ki in data set [4] of 0.96 µM.
Regarding `COc1cc(-n2nc(C)c(S(N)(=O)=O)c2C)ccc1S(N)(=O)=O` [Compound 9k, 1-(3-Methoxy-4-sulfamoylphenyl)-3,5-dimethyl-^1H-pyrazole-4-sulfonamide], the melting point was 256 to 258 °C. Besides, the Ki in data set [1] is > 10 µM. This molecule also showed a Ki in data set [2] of 0.17 µM. The inhibition constant (Ki) in data set [3] amounted to 4.65 µM. In data set [4], this molecule registered a Ki of 0.61 µM.
On to `Cc1ccc(S(N)(=O)=O)cc1-n1cc(S(N)(=O)=O)cn1` [Compound 9i, 1-(2-Methyl-5-sulfamoylphenyl)-^1H-pyrazole-4-sulfonamide], for which the melting point was 185 to 188 °C. Moreover, the Ki in data set [1] (setting [5]) stood at 7.86 µM. Also, the Ki in data set [2] (setting [6]) amounted to 0.014 µM. In data set [3] (setting [7]), the Ki was 0.55 µM. Also, the Ki in data set [4] (setting [8]) stood at 0.03 µM.
The molecule `Cc1nn(-c2ccc(S(N)(=O)=O)c(Cl)c2)c(C)c1S(N)(=O)=O` [Compound 9o, 1-(3-Chloro-4-sulfamoylphenyl)-3,5-dimethyl-^1H-pyrazole-4-sulfonamide] displayed a melting point of 198 to 201 °C. Further, the affinity in data set [1], expressed as Ki, was 0.93 µM. In data set [2], this molecule showed a Ki of 0.71 µM. For the same molecule, the Ki in data set [3] came out at 0.16 µM. The molecule further yielded a Ki in data set [4] of 0.008 µM.
Turning to `NS(=O)(=O)c1ccc(Cl)c(-n2cccn2)c1` [Compound 7n, 4-Chloro-3-(^1H-pyrazol-1-yl)benzenesulfonamide], the melting point lay in the range of 204 to 206 °C. For the same molecule, the inhibition constant Ki in data set [1] is 0.004 µM. Moreover, the Ki in data set [2] was 0.009 µM. Further, the inhibitory constant (Ki) in data set [3] amounted to 3.83 µM. Further, the affinity in data set [4] corresponds to a Ki of 0.001 µM.
The matching figures for `Cc1nn(-c2ccc(S(N)(=O)=O)cc2)c(C)c1S(N)(=O)=O` [Compound 9b, 3,5-Dimethyl-1-(4-sulfamoylphenyl)-^1H-pyrazole-4-sulfonamide]: 272 to 274 °C, 0.111 µM, 0.035 µM, 0.33 µM and 0.005 µM.
The matching figures for `Cc1nn(-c2cccc(Cl)c2)c(C)c1S(N)(=O)=O` [Compound 8g, 1-(3-Chlorophenyl)-3,5-dimethyl-^1H-pyrazole-4-sulfonamide]: 182 to 184 °C, 9.49 µM, 0.46 µM, 0.94 µM and 1.08 µM.
The matching figures for `NS(=O)(=O)c1ccc(-n2cccn2)cc1` [Compound 7a, 4-(^1H-pyrazol-1-yl)benzenesulfonamide]: 323 to 325 °C, > 10 µM, 0.8 µM, 4.78 µM and 0.072 µM.
`Cc1nn(-c2ccc(Cl)cc2)c(C)c1S(N)(=O)=O` [Compound 8a, 1-(4-Chlorophenyl)-3,5-dimethyl-^1H-pyrazole-4-sulfonamide] had a melting point of 164 to 166 °C. Moreover, in data set [1], the Ki was > 10 µM. Also, the Ki in data set [2] was > 10 µM. Besides, the affinity in data set [3] corresponds to a Ki of 0.76 µM. In addition, the Ki in data set [4] stood at 5.33 µM.
In the case of `Cc1ccc(-n2nc(C)c(S(N)(=O)=O)c2C)cc1S(N)(=O)=O` [Compound 9d, 3,5-Dimethyl-1-(4-methyl-3-sulfamoylphenyl)-^1H-pyrazole-4-sulfonamide], the Ki in data set [2], in data set [3] and in data set [4] was > 10 µM each time.
Turning to `Cc1ccc(S(N)(=O)=O)cc1-n1cccn1` [Compound 7f], the Ki in data set [1] (setting [5]) was > 10 µM; in data set [2] (setting [6]) it was 0.059 µM; in data set [3] (setting [7]) it was 1.23 µM; in data set [4] (setting [8]), 0.059 µM.
`Cc1cc(C)n(-c2ccc(S(N)(=O)=O)cc2)n1` [Compound 7o, 4-(3,5-Dimethyl-^1H-pyrazol-1-yl)benzenesulfonamide]: the Ki in data set [1] amounted to 0.084 µM; in data set [2], 0.017 µM; in data set [3], 0.462 µM; in data set [4], 0.004 µM.
